Data on seven molecules can be found in US20040126338A1, “Process of converting trans-lutein into cis-lutein and the uses thereof” (priority 2002, published 2004).

A short description of series [1]: Persistence of cis-isomers during heating or reflux, normal phase HPLC percent area. Type of series: physicochemical. As for the experimental part: (§1) The solvent solutions are refluxed in the following examples by placing the glass flask on a heating unit. A reflux column, which is cooled by non-recirculating cold water, is attached to the flask. The solution is then heated to the boiling point of the given liquid, except for propylene glycol, which boils at 187° C. The refluxing time varies slightly between solution samples. The refluxing times for each example are stated for each below. Samples are taken periodically to test the concentration of the cis-isomers, these are referred to as collected samples. Similarly, the oil solutions were heated in the following examples by placing the glass flask into a heated oil bath filled with mineral oil, which was stirred constantly, at 72° C.
Storing and centrifuging refers to the collected samples being placed into 12×75 mm glass culture tubes and wrapped with Parafilm® (Pechiney Plastic Packaging) and stored in a freezer until analysis. When prepped for analysis the collected samples are first warmed to room temperature and then the aliquot is centrifuged at 12,000 rpm for 5 minutes to remove trans-isomers crystals. The trans-isomer crystals are removed because the cis-isomers of lutein are known to be more soluble than the trans-isomers, which will allow them to remain in solution once formed. Next 1 ml of the centrifuged collected sample is placed into a High Performance Liquid Chromotography (HPLC) vial for analysis.
Analysis of the solutions formed from lutein and a liquid are analyzed using both normal phase HPLC and a spectophotometer. For the HPLC analysis, 1 ml of the collected sample of each solution is filtered through a 0.45 micron syringe filter into a HPLC sample vial. The sample is first dried using a nitrogen stream and then the remaining solids are dissolved in a 1 ml of a 65:35 hexane:ethylacetate mixture. […] In this way the percent area of the lutein cis-isomer peak is determined.

The conditions of series [2]: cited from earlier work.
Series [3] deals with age-related macular degeneration. The settings on record: consumption of lutein and zeaxanthin; cited from earlier work.
The nature of series [4]: Carotenoid content of lutein heated in oils at 72° C., UV-Vis absorbance at 446 nm. It is filed as physicochemical. As for the experimental part: as §1
In this preparation a solution was made using 2 g of lutein dry cake and 20 ml of oil. The solution was heated in an oil bath. […] As before, samples were analyzed qualitatively using normal phase HPLC and spectophotometer. However, quantitative analysis was also performed, by taking 1 ml of the HEAT (hexane, ethanol, acetone and toluene) solution previously prepared, diluting it to 25 ml in ethanol, and determining the absorbance on an UV-Vis absorption spectrophotometer. This type of analysis is often useful for quantitative measurements. All of the thyme oil samples required a 1:20 dilution of the ethanol solution before reading on the UV-Vis.

Series [5] in a line: Room temperature saturation limit and solubility on heating of lutein dry cake in solvents. Particulars: for Room temp. sataturation limit (%): room temperature. It is filed as physicochemical. How it is done: The purpose of this preparation is to analyze the effect of heat on a solution of lutein in four solvents, hexane, ethanol, isopropanol, and acetone, to determine whether isomerization from trans-isomers of lutein to various cis-isomers occurs, and what concentration of each isomer is formed. The solutions were prepared using 100 ml of the above stated solvents to dissolve varying weights of lutein dry cake. Initial solubility limits ere tested by adding a small amount of dry cake and swirling the flask briefly. If the sample appeared saturated, it was centrifuged to verify that a pellet of undissolved material was formed. If the solution was not saturated, additional dry cake was added until saturation was reached. Once the approximate solubility at room temperature was determined for each solvent, excess dry cake was added for the increased solubility that occurs through heating and isomerization, in order to maintain saturation during the entire experiment.

Series [6] can be described thus: Observed solubility of lutein dry cake in oils. Type of series: physicochemical. As for the experimental part: Using an analytical balance, the preparation of solution for the following examples for cis-isomerization includes placing weighed dry cake lutein into a flask and adding one of the above liquids to the flask to form the solution. The solution is first hand swirled and its solubility is observed. Following a baseline sample, which is taken at the 0 hour mark, the prepared lutein solution is placed on a heat source and refluxed for a period of time ranging between 0-120 hours.
The purpose of this preparation is to analyze the effect of heat on a solution of lutein in the above stated oils and determine whether isomerization from trans-lutein to various cis-isomers occurs, and the concentration of each isomer that is formed. The oils used in this example were corn oil, which was used as a control, corn mint oil, spearmint oil, peppermint oil, tea tree oil, and bay oil. […] The solutions were made by adding 20 ml of oil to the weighed lutein. The sample heated in an oil bath. A baseline 2 ml sample was taken and additional 2 ml samples taken at 1, 4, 8, 24, and 48 hours.
In this preparation a solution was made using 2 g of lutein dry cake and 20 ml of oil. The solution was heated in an oil bath. Samples (2 ml) were taken at 0, 1, 4, 6.5, 24, and 48 hours. As before, samples were analyzed qualitatively using normal phase HPLC and spectophotometer. However, quantitative analysis was also performed, by taking 1 ml of the HEAT (hexane, ethanol, acetone and toluene) solution previously prepared, diluting it to 25 ml in ethanol, and determining the absorbance on an UV-Vis absorption spectrophotometer. This type of analysis is often useful for quantitative measurements. All of the thyme oil samples required a 1:20 dilution of the ethanol solution before reading on the UV-Vis.
Samples containing 25% solutions were prepared using 2.5 g dry cake lutein and 10 ml of liquid. The liquid used in solution was from the group consisting of corn oil, diH2O, or Spectrum brand white thyme oil. The “dry” sample contained 2.5 g dry cake lutein and was preformed without the addition of any liquid. […]

For series [7] the following is noted: among carotenoids; cited from earlier work.
In the next series the test system is prostate cancer. Particulars: in vivo; cited from earlier work.
The nature of series [8]: Cis-isomer content of supernatants versus pellets of the isopropanol solution. It is filed as physicochemical. How it is done:
The purpose of this preparation was to analyze the effect of isopropanol in solution with lutein, and analyze the effect of adding water to the lutein/isopropanol solution. In this example a solution was prepared by adding 2.51 g of dry cake lutein (lot 082405-08) to 50 ml isopropanol to a flask. The prepared solution was swirled and refluxed at 81° C. for 8 hours.
Samples were taken at 0, 1, 4, 6, and 8 hours to follow the isomerization. At 8 hours the sample was transferred to a 150 ml Erlenmeyer flask and placed in a freezer to cool. When partially cooled, aliquots were taken for precipitation and samples were diluted to 2:1, 1:1, and 1:2 ratios of water:isopropanol. An additional sample was prepared which contained only isopropanol solution. The samples were vortexed and centrifuged. Supernatant and pellets were collected and stored in a 1.5 ml microfuge tube until analysis.

Series [9] can be described thus: UV absorption spectra of cis-lutein and trans-lutein. It is filed as physicochemical. The source says:
FIG. 5 is a graph of the trans-lutein spectrum.
FIG. 6 is a graph of the cis-lutein spectrum.

Where only a bound is given, the exact number is not on record here.

For `CC(C=CC=C(C)C=CC1=C(C)CC(O)CC1(C)C)=CC=CC=C(C)C=CC=C(C)C=CC1C(C)=CC(O)CC1(C)C` (single isomer, unassigned) [13,13′ cis-isomer, 13,13′ cis-lutein], the “stability for extended periods” value in series [1] (Example 3 oils at 72° C., concentration declines after 24 hour sample) is listed as “did not appear to be highly stable for extended periods”. Besides, the stability result in series [1] (Example 4 thyme oils at 72° C., 4-48 hours) was “appears to be stable”.

As for `CC1=C[C@H](O)CC(C)(C)[C@H]1/C=C/C(C)=C/C=C/C(C)=C/C=C/C=C(C)/C=C/C=C(C)/C=C/C1=C(C)C[C@@H](O)CC1(C)C` (single isomer, unassigned) [trans-isomers of lutein, trans-lutein], in series [2] (crystalline forms), the “stability in crystalline forms” value is recorded as “stable in crystalline forms”.

Consider `CC1=C(/C=C/C(C)=C/C=C/C(C)=C/C=C/C=C(C)/C=C/C=C(C)/C=C/C2=C(C)C[C@@H](O)CC2(C)C)C(C)(C)C[C@H](O)C1` [Zeaxanithin, zeaxanthin], for which the “reduction in age-related macular degeneration” value in [3] was 57%.

On to `CC1=C[C@H](O)CC(C)(C)[C@H]1/C=C/C(C)=C/C=C/C(C)=C/C=C/C=C(C)/C=C/C=C(C)/C=C/C1=C(C)C[C@@H](O)CC1(C)C` [lutein dry cake, lutein], for which the carotenoid concentration observed in [4] (thyme oil, predicted concentration 10%) is reported as 7.18%. Moreover, the “Room temp. sataturation limit (%)” value in [5] (in acetone) is listed as “˜0.45%”; in series [5] (in ethanol) it was “˜0.3%”; in series [5] (in hexane), less than 1%; in series [5] (in isopropanol), “˜0.2%”. Moreover, the “solubility when the solution was heated” value in series [5] (in isopropanol, reflux) is on record as “increased dramatically”. For the same molecule, in [6] (Example 4, 2 g dry cake in 20 ml oil), the “solubility in corn oil compared with thyme oils” value is reported as “least soluble in corn oil”.

With `CC1=C[C@H](O)CC(C)(C)[C@H]1/C=C/C(C)=C/C=C/C(C)=C/C=C/C=C(C)/C=C/C=C(C)/C=C/C1=C(C)C[C@@H](O)CC1(C)C` [lutein], in series [4] (in thyme oil), the “time for which lutein was stable (carotenoid content)” value is given as “about 6.5 hours”. The “solubility in corn oil compared with the other oils” value in [6] (Example 3, corn mint, spearmint, peppermint, tea tree and bay oil, 3 mg or 4 mg in 20 ml) is reported as “less soluble in corn oil than in the other oils”. The “solubility when heated in white thyme oil” value in series [6] (Example 5, 25% w/v, Spectrum white thyme oil) was “good solubility”. In addition, the “reduction in age-related macular degeneration” value in series [3] is on record as 57%.

Consider `CC(C)=CCC/C(C)=C/C=C/C(C)=C/C=C/C(C)=C/C=C/C=C(C)/C=C/C=C(C)/C=C/C=C(\C)CCC=C(C)C` [lycopene], for which, in series [7], the oxygen quenching entry is given as “best carotenoid oxygen quencher”. Further, the “reducing the risk of prostate cancer” value in the series with prostate cancer was “active in reducing the risk of prostate cancer”.

For cis-lutein [cis-isomers of lutein], the “solubility compared with trans-isomers” value in series [8] was “higher than trans-isomers”. Besides, in [9], the “ultraviolet light (UV) absorption compared with trans-isomer lutein” value is “higher”. Moreover, in series [1] (propylene glycol reflux (75° C.), content decreased after four hours), the “stability of the cis-isomer formed” value is recorded as “not stable”. Moreover, in series [2] (reflux in ethanol), the “stability upon reflux in ethanol” value is reported as “easily reverted to the more thermodynamically stable trans-isomers”.
